The values below come from patent KR20230116309A (priority 2022, dated 2023).

The test system of data set [1] is foot-and-mouth disease virus O/SKR/Boeun/2017 [O/SKR/Boeun/2017 바이러스]. The data set is classed as cell-based.
The subject of a further data set is LFBK cells [LFBK 세포]. The data set is described as follows: Cytotoxicity by MTS assay (Test Example 1). In kind it is cell-based, porcine. The settings on record: no virus, values in Table 1 (missing).
The test system of data set [2] is foot-and-mouth disease virus O/SKR/Boeun/2017 [구제역바이러스(O/SKR/Boeun/2017)]. The data set is classed as cell-based.
Data set [3] has as its system foot-and-mouth disease virus O/VIT/2013 [구제역바이러스 O/VIT/2013]. The data set is classed as in vivo, C57BL/6 mouse. The settings on record: for survival rate: 16 h before challenge with 250 LD50, day 7.
Data set [4] concerns porcine interferon alpha protein [돼지 인터페론 알파 단백질]. The data set is classed as cell-based.
The test system of the next data set is IFN-α [인터페론 알파(IFN-α)]. Also on record: species or system Balb/C mouse. The following applies: mouse, in vivo.
The test system of the next data set is IFN-γ [인터페론 감마(IFN-γ)]. Also on record: species or system Balb/C mouse. The following applies: mouse, in vivo.
Another data set deals with IL-12. Also on record: species or system Balb/C mouse. The following applies: mouse, in vivo.
The test system of the next data set is IL-6. Also on record: species or system Balb/C mouse. The settings on record: mouse, in vivo.
Another data set deals with IP-10 [IP-10(CXCL10)]. Also on record: species or system Balb/C mouse. The following applies: mouse, in vivo.
Data set [5] addresses T1, TLR7 (toll-like receptor 7) (Homo sapiens, UniProt Q9NYK1).
T1 sequence (Q9NYK1 27-1049): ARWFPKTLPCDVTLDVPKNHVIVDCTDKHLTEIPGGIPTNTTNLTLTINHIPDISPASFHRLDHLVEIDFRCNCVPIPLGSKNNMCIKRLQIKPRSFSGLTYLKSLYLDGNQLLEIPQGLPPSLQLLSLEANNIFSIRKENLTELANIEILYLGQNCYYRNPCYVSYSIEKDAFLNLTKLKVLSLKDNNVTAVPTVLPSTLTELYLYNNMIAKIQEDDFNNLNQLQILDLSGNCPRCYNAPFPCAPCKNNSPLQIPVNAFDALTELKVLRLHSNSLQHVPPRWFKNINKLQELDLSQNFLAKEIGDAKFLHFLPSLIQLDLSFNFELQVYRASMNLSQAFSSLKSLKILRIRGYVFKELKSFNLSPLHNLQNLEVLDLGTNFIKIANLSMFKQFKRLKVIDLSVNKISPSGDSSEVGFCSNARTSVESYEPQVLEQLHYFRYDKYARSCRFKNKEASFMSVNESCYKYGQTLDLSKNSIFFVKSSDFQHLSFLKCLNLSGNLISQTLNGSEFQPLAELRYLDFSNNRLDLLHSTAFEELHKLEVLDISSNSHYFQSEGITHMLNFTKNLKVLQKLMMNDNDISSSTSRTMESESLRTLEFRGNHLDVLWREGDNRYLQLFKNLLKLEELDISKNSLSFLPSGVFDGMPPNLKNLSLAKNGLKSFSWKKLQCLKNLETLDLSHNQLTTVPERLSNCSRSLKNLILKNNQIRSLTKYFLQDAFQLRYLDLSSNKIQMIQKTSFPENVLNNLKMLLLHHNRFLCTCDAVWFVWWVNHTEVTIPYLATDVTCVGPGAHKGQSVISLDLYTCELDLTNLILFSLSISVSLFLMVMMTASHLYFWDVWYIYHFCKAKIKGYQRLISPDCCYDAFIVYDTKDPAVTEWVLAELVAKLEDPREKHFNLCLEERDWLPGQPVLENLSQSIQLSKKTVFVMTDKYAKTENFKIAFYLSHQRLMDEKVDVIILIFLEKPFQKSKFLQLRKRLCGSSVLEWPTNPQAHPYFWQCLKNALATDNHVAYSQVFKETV
The settings on record: oral administration; cited from earlier work.

Data set [6] relates to interferon-stimulated gene [인터페론-자극 유전자(interferon-stimulated gene; ISG)]. The settings on record: oral administration, human and laboratory animals; cited from earlier work.
Data set [7] has as its system chronic hepatitis B virus [B형 만성 간염 바이러스]. The following applies: oral administration, human and laboratory animals; cited from earlier work.
Data set [8] relates to human hepatitis C virus [인간 간염 바이러스 C형(HCV)]. The following applies: cited from earlier work.
Data set [9] relates to human immunodeficiency virus [인간면역결핍 바이러스(HIV)]. The settings on record: cited from earlier work.
Data set [10] concerns enterovirus 71 [엔테로바이러스 71(EV71)]. The settings on record: cited from earlier work.
Data set [11] relates to proteins involved in foot-and-mouth disease virus replication [구제역바이러스의 증식에 관여하는 단백질]. The settings on record: cited from earlier work.

Counter-ions that a name gives are not always drawn. Like-named read-outs stand apart in the source and are kept apart here.

On to `CCCCOc1nc(N)c2c(n1)N(Cc1cccc(CN3CCCC3)c1)CC(=O)N2` [GS-9620, 베사톨리모드(Vesatolimod; GS-9620)], for which the “selectivity index (CC50/EC50)” value in data set [1] (LFBK cells, 24 h pretreatment, 100TCID50 virus, 24 h after inoculation) was approximately 650.5. In addition, the virus inhibitory effect entry in data set [1] (LFBK cells, MTS assay, values in Table 1 (missing)) was “우수한 바이러스 억제효과”. Further, the “selectivity index relative to ribavirin (fold higher)” value in data set [1] (compared with ribavirin) was approximately 5 fold. The cytotoxicity result in the data set with LFBK cells [LFBK 세포] is “낮은 세포독성”. Besides, the “FMDV replication inhibitory effect, dose dependence” value in data set [2] (2500~156.2 μM, 24 h pretreatment, 100 TCID50, 48 h) is “용량에 비례하여 구제역바이러스 증식억제 효과를 발휘”. In data set [2] (same concentration, P<0.05, 100 TCID50, 48 h), the “FMDV replication inhibitory effect compared with ribavirin” value is “같은 농도에서 더 우수한 바이러스 증식효과”. For the same molecule, the survival rate in [3] (10 mg/kg i.p.) is listed as 100%; in [3] (printed dose 25 mg/kg ('halved'), i.p.), 80%. Also, the “survival rate (duration of protection)” value in [3] (10 mg/kg i.p., up to day 5 after administration (challenge 1, 3, 5 days after dosing, 250 LD50)) was 100%. For the same molecule, the IFN-α protein induction entry in data set [4] is given as “IFN-α 단백질을 성공적으로 유도”. Also, the IFN-α induction entry in the data set with IFN-α [인터페론 알파(IFN-α)] is reported as “유도되어 나타났다”. Besides, the IFN-γ induction entry with IFN-γ [인터페론 감마(IFN-γ)] was “유도되어 나타났다”. The IL-12 induction result in the data set with IL-12 is on record as “증가가 확인된”. The IL-6 induction result in the data set on IL-6 is reported as “신속하게 또한 지속적으로 유도”. Moreover, the IP-10 induction entry in the data set with IP-10 [IP-10(CXCL10)] was “신속하게 또한 지속적으로 유도”. Further, in [5], the TLR7 agonist activity entry is “효능제(agonist)로 작용”. For the same molecule, the “induction of ISG expression” value in [6] was “발현을 유도”. Also, the “inhibition of hepatitis B virus” value in [7] is listed as “B형 만성 간염 바이러스를 억제”. The antiviral effect entry in [8], in [9] and in [10] was “항바이러스 효과” throughout.
Consider `O=c1cnn([C@@H]2O[C@H](CO)[C@@H](O)[C@H]2O)c(=O)[nH]1` [6-아자우리딘(azauridine)], for which the “inhibition of proteins involved in FMDV replication” value (“inhibition of proteins involved” for short) in data set [11] was “구제역바이러스의 증식에 관여하는 단백질을 억제”.
With `N=C(N)N` [구아니딘(Guanidine)-HCl], the “inhibition of proteins involved” value in data set [11] is on record as “구제역바이러스의 증식에 관여하는 단백질을 억제”.
As to `NC(=O)c1ncn([C@@H]2O[C@H](CO)[C@@H](O)[C@H]2O)n1` [리바비린, 리바비린(ribavirin)], the “inhibition of proteins involved” value in [11] is on record as “구제역바이러스의 증식에 관여하는 단백질을 억제”.
